# Several values for one entry are separate records, joined by “and”; a condition that tells them apart may be missing. Identical values can stand only once.
# Assays:
# Male ICR mice [1] = test: Suppression of spontaneous activity (SA) in mice; format: in vivo, mouse
# Experimental: (§1) Male ICR mice (25–32 g), obtained from Harlan (Dublin, Va.), were housed in groups of five. All animals were kept in a temperature-controlled (20–22° C.) environment with a 12-hour light-dark cycle (lights on at 7 a.m.). Separate mice were used for testing each drug dose in the in vivo behavioral procedures. Brain tissue for binding studies was obtained from male Sprague-Dawley rats (150–200 g) purchased from Harlan Laboratories (Dublin, Va.).
# (§2) Measurement of spontaneous activity in mice occurred in standard activity chambers interfaced with a Digiscan Animal Activity Monitor (Omnitech Electronics, Inc., Columbus, Ohio). A standard tail-flick apparatus and a digital thermometer (Fisher Scientific, Pittsburgh, Pa.) were used to measure antinociception and rectal temperature, respectively
# (§3) Resorcinols were synthesized in our labs (Organix, Inc., Woburn, Mass.) according to the procedure specified below and were suspended in a vehicle of absolute ethanol, Emulphor-620 (Rhone-Poulenc, Inc., Princeton, N.J.), and saline in a ratio of 1:1:18. Drugs were administered to the mice intravenously (i.v.) in the tail vein at a volume of 0.1 ml/10 g.
# (§4) Prior to testing in the behavioral procedures, mice were acclimated to the experimental setting (ambient temperature 22–24° C.) overnight. Pre-injection control values were determined for rectal temperature and tail-flick latency (in sec). […] Tail-flick latency was measured at 20 min post-injection. Maximum latency of 10 sec was used. Antinociception was calculated as percent of maximum possible effect {% MPE=[(test−control latency)/(10-control)]×100}. Control latencies typically ranged from 1.5 to 4.0 sec. At 30 min post-injection, rectal temperature was measured This value was expressed as the difference between control temperature (before injection) and temperatures following drug administration (° C.). Different mice (n=5–6 per dose) were tested for each dose of each compound. Each mouse was tested in each of the 3 procedures.
# (§5) Based on data obtained from numerous previous studies with cannabinoids, maximal cannabinoid effects in each procedure were estimated as follows: 90% inhibition of spontaneous activity, 100% MPE in the tail flick procedure, and −6° C. change in rectal temperature. ED50's were defined as the dose at which half maximal effect occurred. For drugs that produced one or more cannabinoid effect, ED50's were calculated separately using least-squares linear regression on the linear part of the dose-effect curve for each measure in the mouse tetrad, plotted against log10 transformation of the dose. For the purposes of potency comparison, potencies were expressed as μmol/kg.
# Male ICR mice [2] = test: Change in rectal temperature (RT) in mice; format: in vivo, mouse; details: for R.T. effect at dose: Table 6, @ 30 (mg/kg)
# Experimental: as §1, §2, §3, §4, §5
# Male ICR mice [3] = test: Tail-flick antinociception (TF, % MPE) in mice; format: in vivo, mouse; details: for T.F. % effect at dose: Table 6, @ 30 (mg/kg)
# Experimental: as §1, §2, §3, §4, §5
# CB1 receptor = CB1 receptor (Rattus norvegicus, UniProt P20272); test: CB1 binding procedure: displacement of [3H]CP 55,940 from rat whole-brain P2 membranes; parameters: whole brain was homogenized and centrifuged; from tissue; host or cells: rat whole brain, P2 membrane fraction; details: for Ki: means ± SEM, [3H]CP 55,940, rat brain membranes, read-out: Ki (nM) CB1
# Sequence of CB1 receptor (P20272 whole entry): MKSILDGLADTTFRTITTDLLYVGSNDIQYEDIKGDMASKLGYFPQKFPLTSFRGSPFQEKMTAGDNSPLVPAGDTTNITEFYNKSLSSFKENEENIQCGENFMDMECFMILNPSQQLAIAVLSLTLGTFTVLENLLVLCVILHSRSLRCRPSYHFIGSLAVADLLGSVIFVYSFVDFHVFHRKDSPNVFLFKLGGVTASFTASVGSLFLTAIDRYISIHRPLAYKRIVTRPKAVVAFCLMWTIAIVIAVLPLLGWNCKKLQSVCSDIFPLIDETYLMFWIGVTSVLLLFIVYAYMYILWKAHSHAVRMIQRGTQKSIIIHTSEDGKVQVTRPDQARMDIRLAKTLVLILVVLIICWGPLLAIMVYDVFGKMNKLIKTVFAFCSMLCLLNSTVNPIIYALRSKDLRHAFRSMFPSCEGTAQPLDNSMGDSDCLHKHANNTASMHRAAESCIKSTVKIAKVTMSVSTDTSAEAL
# Experimental: as §1
# The methods used for tissue preparation and binding have been described previously (Compton et al., 1993) and are similar to those described by Devane et al. (1988). All assays, as described briefly below, were performed in triplicate, and the results represent the combined data from three to six individual experiments.
# Following decapitation and rapid removal of the brain, whole brain was homogenized and centrifuged. The resulting pellet was termed P1. The supernatant was saved and combined with the two subsequent supernatants obtained from washing of the P1 pellet. The combined supernatant fractions were centrifuged, resulting in the P2 pellet. After further incubation and centrifuging, this pellet was resuspended in assay buffer to a protein concentration of approximately 2 mg/ml. The membrane preparation was quickly frozen in a bath solution of dry ice and 2-methylbutane (Sigma Chemical Co., St. Louis, Mo.), then stored at −80° C. for no more than 2 weeks. Prior to performing a binding assay an aliquot of frozen membrane was rapidly thawed and protein values determined by the method of Bradford (1976).
# Binding was initiated by the addition of 150 μg of P2 membrane to test tubes containing 1 nM of [^3H] CP 55,940 (79 Ci/mmol) and a sufficient quantity of buffer to bring the total incubation volume to 1 ml. Nonspecific binding was determined by the addition of 1 μM unlabeled CP 55,940. Following incubation at 30° C. for 1 hr, binding was terminated by addition of ice cold buffer and vacuum filtration through pretreated filters in a 12-well sampling manifold (Millipore, Bedford, Mass.). After washing, filters were placed into plastic scintillation vials (Packard, Downer Grove, Ill.) and shaken. The quantity of radioactivity present was determined by liquid scintillation spectrometry.
# (§6) In addition, multiple linear regression was used to calculate the overall degree of relationship between CB1 binding affinity and potency in the mouse measures for all active cannabinoids. […] Ki values for CB1 and CB2 binding were obtained from Scatchard displacement analysis as determined via EBDA program of the KELL software package (Biosoft, Milltown, N.J.).
# CB2 receptor = target: T1, CB2 receptor (Homo sapiens, UniProt P34972); test: CB2 binding procedure: displacement of [3H]CP-55,940 from membranes of transfected CHO cells; details: for CB1/CB2 (ratio of Ki): CB1 Ki divided by CB2 Ki; for Ki: means ± SEM, [3H]CP-55,940, transfected CHO cell membranes, read-out: Ki (nM) CB2
# T1 construct: expressed in transfected cells; host or cells: CHO cells, G418-selected transfected line
# T1 sequence (P34972 whole entry): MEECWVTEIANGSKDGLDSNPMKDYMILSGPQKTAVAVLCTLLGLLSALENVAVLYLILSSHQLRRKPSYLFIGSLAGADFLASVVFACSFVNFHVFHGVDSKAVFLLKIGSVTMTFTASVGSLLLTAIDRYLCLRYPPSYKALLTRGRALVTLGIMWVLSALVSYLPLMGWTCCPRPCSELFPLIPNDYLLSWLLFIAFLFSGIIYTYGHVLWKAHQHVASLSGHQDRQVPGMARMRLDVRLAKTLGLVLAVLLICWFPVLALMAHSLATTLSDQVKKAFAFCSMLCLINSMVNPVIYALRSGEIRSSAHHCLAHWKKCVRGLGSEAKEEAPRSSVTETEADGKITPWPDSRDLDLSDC
# Experimental: Membranes for CB2 binding were obtained from CHO cells. The transfected cell line was maintained in Dublecco's Modified Eagle Medium (Gibco BRL, Grand Island, N.Y.) with 10% fetal clone II (HyClone Laboratories, Inc., Logan, Utah) plus 0.3 to 0.5 mg/ml G418 (to maintain selective pressure) under 5% CO2 at 37% C. Cells were harvested with 1 mM EDTA in phosphate-buffered saline and were centrifuged at 1000×g for 5 min at 4% C. The supernatant was saved and the P1 pellet was resuspended in centrifugation buffer. Homogenization and centrifugation were repeated twice and the combined supernatant fractions were centrifuged at 40,000×g for 30 min at 4% C. The P2 pellet was resuspended in centrifugation buffer 2 (Tris HCl, 50 mM; EDTA, 1 mM; and MgCl2, 3 mM, pH 7.4) to a protein concentration of approximately 2 mg/ml. Protein concentrations were determined by the method of Bradford (1976) using Bio-Rad Protein Assay (Bio-Rad, Richmond, Calif.) and BSA standards (fatty acid free, Sigma Chemical Co., St. Louis, Mo.). The membrane preparation was divided into amounts convenient for binding assays and frozen rapidly in dry ice and stored at −80% C.
# Binding was initiated by the addition of 50 μg of quickly thawed P2 membranes to test tubes containing [^3H]CP-55,940 (final reaction concentration 0.5 nM), an appropriate concentration of unlabeled CP-55,940 or test drug, and sufficient quantity of assay buffer (50 mM Tris-HCl, 1 mM EDTA, 3 mM MgCl2, 5 mg/ml bovine serum albumin, pH 7.4) to bring the total incubation volume to 0.5 ml. Concentration of [^3H]CP-55,940 in saturation studies ranged from 50 to 10,000 pM. Nonspecific binding was determined by the addition of 1 μM unlabeled CP-55,940. CP-55,940 and all cannabinoid analogs were prepared by suspension in assay buffer from a 1 mg/ml ethanolic stock without evaporation of the ethanol (final concentration of no more than 0.4%). In competition studies, analog concentrations ranged from 0.1 nM to 10 μM. After incubation at 30% C for 1 hr, binding was terminated by the addition of 2 ml of ice-cold wash buffer (50 mM Tris-HCl and 1 mg/ml BSA) and vacuum filtration through pre-treated filters in a 12-well sampling manifold (Millipore, Bedford, Mass.). Reaction vessels were washed once with 2 ml of ice-cold wash buffer. Filters were placed into 7-ml plastic scintillation vials (RPI Corp., Mount Prospect, Ill.) with 4 ml of Budget-Solve (RPI Corp.). After shaking for 30 min, the radioactivity present was determined by liquid scintillation spectrometry. Three reaction vessels were used for each drug concentration in each assay. The results represent the combined data of three independent experiments. All assays were performed in siliconized test tubes, which were prepared by air drying (12 hr) inverted borosilicate tubes after two rinses with a 0.1% solution of AquaSil (Pierce, Rockford, Ill.). The GF/C glass-fiber filters (2.4 cm, Baxter, McGaw Park, Ill.) were pre-treated in a 0.1% solution of pH 7.4 polyethylenimine (Sigma Chemical Co.) for at least 6 hr.
# as §6
# [4] = relative to the comparator analog
SMILES,Ki (CB1 receptor) [nM],CB1/CB2 (ratio of Ki) (CB2 receptor),Ki (CB2 receptor),also measured
"C=C(C)[C@@H]1CCC(C)=C[C@H]1c1c(C)cc(O)cc1O (single isomer, unassigned) [O-1602]",,,,"S.A % effect at dose, stim. (Male ICR mice [1]; Table 6, stimulation, @ 30 (mg/kg)): 66% stim.; R.T. effect at dose (Male ICR mice [2]): 0.3 @ 30 °C; T.F. % effect at dose (Male ICR mice [3]): 0 @ 30%"
"CCCCCCC(C)(C)c1cc(OC)c(C2(O)CCC(O)CC2)c(OC)c1 (single isomer, unassigned) [O-2116A]",3930 ± 483,21,190 ± 17 nM,
"CCCCCCC(C)(C)c1cc(OC)c(C2(O)CCC(O)CC2)c(OC)c1 (single isomer, unassigned) [O-2117B]",> 10000,,1560 ± 70 nM,
"CCCCCCC(C)(C)c1cc(OC)c(C2(O)CCCC(C)C2)c(OC)c1 (single isomer, unassigned; isomer 1) [O-1966A, 1-(4-(1,1-Dimethylheptyl-2,6-dimethoxy-phenyl)-3-methyl-cyclohexanol isomer 1]",5060 ± 984,220,22.5 nM and 23 nM,R.T. effect at dose (Male ICR mice [2]): 0.5 @ 30 °C; CB2 selectivity (CB2 receptor): 225 fold; T.F. % effect at dose (Male ICR mice [3]): 5.1 @ 30%
"CCCCCCC(C)(C)c1cc(OC)c(C2CCOCC2)c(OC)c1 [O-1964, 4-(4-(1,1-Dimethylheptyl)-2,6-dimethoxy-phenyl)-tetrahydro-pyran]",> 10000,,911 ± 116 nM,fold decrease in CB2 affinity (CB2 receptor; [4]): ~2 fold; T.F. % effect at dose (Male ICR mice [3]): 30% @ 30
"CCCCCCC(C)(C)c1cc(OC)c(C2=CCOCC2)c(OC)c1 [O-1965, 4-(4-(1,1-Dimethylheptyl)-2,6-dimethoxy-phenyl)-3,6-dihydro-2H-pyran]",> 10000,,> 10000 nM,
"CCCCCCc1ccc(O)c(C2CCCCC2)c1O [O-2010, 2-Cyclohexyl-4-hexyl resorcinol]",9510 ± 332,,,"SA percent effect at the highest dose (Male ICR mice [1]; mice, i.v., 30 mg/kg, % inhibition of activity of vehicle group): −18%(30); RT effect at the highest dose (change in rectal temperature) (Male ICR mice [2]; mice, i.v., 30 mg/kg): −0.4(30) °C; fold decrease in CB1 affinity (CB1 receptor; [4]): 865 fold; T.F. % effect at dose (Male ICR mice [3]): 9.0% @ 30; TF percent effect (% MPE) at the highest dose (Male ICR mice [3]; mice, i.v., 30 mg/kg): 9%(30)"
CCCCCCC(C)(C)c1cc(OC)c(C2(O)CCCC(C)(C)C2)c(OC)c1 (centres unmarked) [O-2068],7510 ± 721,47,161 ± 24 nM,
CCCCCCC(C)(C)c1cc(OC)c(C2(O)CCCCC2)c(OC)c1 [O-2072],5820 ± 662,55,105 ± 19 nM,
CCCCCCC(C)(C)c1cc(OCC)c(C2(O)CCCC(C)C2)c(OCC)c1 (centres unmarked) [O-2090],8810 ± 422,10,858 ± 43 nM,
"CCCCCCC(C)(C)c1cc(OC)c(C2(O)CCCCCC2)c(OC)c1 [O-2091, 1-(4-(1,1-Dimethylheptyl)-2,6-dimephenyl)-cycloheptan-1-ol]",3200 ± 141,50,64 ± 8 nM,fold increase in CB2 affinity (CB2 receptor; [4]): ~2 fold
"CCCCCCC(C)(C)c1cc(OC)c(C2(O)CCC3(CC2)OCCO3)c(OC)c1 [O-2092, 8-(4-(1,1-Dimethylheptyl)-2,6-dimphenyl)-1,4-dioxaspiro(4,5)decan-]",4580 ± 312,36,126 ± 12 nM,
"CCCCCCC(C)(C)c1cc(OC)c(C2=CCC(=O)CC2)c(OC)c1 [O-2114, 4-(4-(1,1-O-methyl-heptyl)-2,6-dimethoxy-phenyl)-cyclohex-3-enone]",8440 ± 954,5,1770 ± 184 nM,
CCCCCCC(C)(C)c1cc(OC)c(C2(O)CCC(=O)CC2)c(OC)c1 [O-2115],4570 ± 173,13,346 ± 49 nM,
CCCCCCC(C)(C)c1cc(OC)c(C2(O)CC(C)CC(O)C2)c(OC)c1 (centres unmarked) [O-2121],1990 ± 77,20,101 ± 14 nM,
"COc1cc(C)cc(OC)c1C1(O)CCCC(C)(C)C1 (centres unmarked) [O-2139, 1-(2,6-Dimethyoxy-methyl-phenyl)-3,3-dimethyl-cyclo-hexanol]",> 10000,,> 10000 nM,

# From patent US7179800B2 (priority 2002, dated 2007)
